These results are taken from patent US20260125357A1, “LACTATE ENHANCING COMPOUNDS AND USES THEREOF” (GLIAPHARM SA, priority 2022, published 2026).

Experiment [1] deals with human iPSC-derived astrocytes. Briefly: Release of lactate from human iPSC-derived astrocytes. The class given is cell-based. Conditions: treated for 1.5 hours. On the procedure: Secretion of L-lactate was measured in the extracellular medium of 96-well plated astrocytes after 90 min stimulation (at 37° C., in 5% CO2/95% air conditions) with Vehicle (DMSO), the compounds of the invention (100 nM to 100 μM) or positive control. […] Stimulation medium was composed of D5030 medium complemented with 5 mM D-glucose and 44 mM sodium bicarbonate, pH 7.2. To quantify lactate concentrations in the extracellular medium, 200 μl of a 0.2M Glycine-semicarbazide buffer (pH 10) containing 3 mM NAD and 14 U/ml LDH was added to each well of a 96-well plate containing 30 μl aliquots of extracellular medium. Samples were incubated at 37° C. for 1 h. Fluorescence intensity (340 nm excitation/450 nm emission), which represents the amount of NADH produced, was measured, and lactate concentration values were determined relative to a standard curve of L-lactate concentrations.
Human iPSC-derived astrocytes were purchased from NCardia (NCyte Astrocytes) and were plated at a density of ˜10′000 cells/cm^2 in 96-well or 12-well plates, according to the manufacturer's instructions and using the recommended media. Experiments were performed at 7 days in vitro. Cells were treated for 1.5 hours with compound (2). Uptake of 2-DG and release of lactate were quantified as described previously.

Experiment [2] deals with C57Bl/6J wild-type mice. In words: Lactate and glucose biosensors, cerebral extracellular levels in freely moving mice. The format is in vivo, mouse. The following applies: per os, doses 10 to 30 mg/kg, 3 hours, AUC ratio vs vehicle. As to the method:
All experiments were carried out in strict accordance with the Swiss Federal Guidelines for Animal Experimentation and were approved by the Cantonal Veterinary Office for Animal Experimentation (Canton of Geneva, Switzerland). Adult male C57Bl/6J wild-type mice weighting 18-28 g (8 to 12 weeks of age) were used (Charles River Laboratories). Animals were housed in groups of 3-5 in polypropylene cages (30×40×15 cm) with wire mesh top in a temperature (22±2° C.) and humidity (55±15%) controlled environment on a 12-hour light cycle (07.00-19.00 h lights on), except after surgeries when animal were housed individually. The samples (Vehicle or compounds of the invention) were administered per os (gavage) in a solution made of water supplemented with 0.4% hydroxypropyl methylcellulose (HPMC) Methocel 4 KM (w/v) and 0.25% Tween-20 (v/v), as previously described (Thackaberry et al., 2010, Toxicol Sci., 117(2):485-92). Concentrations of the compounds tested ranged from 3 to 30 mg/kg.
Cerebral extracellular levels of L-lactate and D-glucose were monitored in vivo using lactate and glucose biosensors (Pinnacle Technology), respectively, according to the manufacturer's instructions. Cannulae were surgically implanted in the medial prefrontal cortices (coordinates: −1.0 mm (to bregma), lateral+/−1.0 mm (to mideline), ventral −1.0 mm (to dura))) of isoflurane-anesthetized mice 5 to 7 days prior experiment. After surgery, mice were monitored closely and received analgesic treatment for at least 4 days. After mice had fully recovered from surgery, compounds of the invention of vehicle were administered per os as previously described and cerebral levels of extracellular lactate and glucose were dynamically recorded for 6 hours using biosensors. Mice were administered vehicle alone first, followed 3 hours later by vehicle or Compounds of the Invention. Concentrations of cerebral extracellular lactate and glucose were calculated from the biosensor electric signals using post-calibration values. […] Area Under the Curve (AUC) of lactate and glucose concentration curves were calculated using Graphad Prism and the ratio of AUC after drug over Vehicle administration was calculated. Extracellular concentrations of lactate and glucose were measured in real time in freely moving animals for 3 hours after administration of Vehicle or compounds (1) to (4) at doses ranging from 10 to 30 mg/kg (FIG. 5).

In experiment [3] the test system is mice injected with streptozotocin. In words: Novel Object Recognition in streptozotocin ICV injection model of Alzheimer's disease. The format is in vivo, mouse. Conditions: 1 day after training, vs Veh. As to the method: Craniotomies are performed on isoflurane-anesthetized mice for injections of Veh or streptozotocin in cerebral ventricles (coordinates: −0.5 mm (to bregma), lateral+/−1.0 mm (to midline), ventral −2.2 mm (to dura)) (Kelliny S. et al., Molecular Neurobiology, 2021). A solution composed of Veh (0.9% NaCl) or streptozotocin (5 mg/kg) prepared in 1 μl artificial cerebrospinal fluid solution (aCSF, 20 mM citrate buffer, pH 4.2) is injected in both cerebral ventricles using Hamilton micro syringe at a constant speed of 100-200 nl/min. After injection, skin of the skull is sutured, and mice is monitored closely and receives analgesic treatment for at least 4 days. After mice had fully recovered from surgery, memory tests including Morris Water Maze (MWM), Inhibitory Avoidance (IA) and Novel Object Recognition (NOR), as described below, are performed. […]
Novel object recognition (NOR) is a well-established protocol to evaluate recognition memory in rodent models. […] During the acquisition period, time spent exploring and number of contacts with each object are recorded. […] The time of exploration and number of contacts with each object are recorded. The activity is recorded automatically using automated tracking software (Ethovision).

Structures are written as SMILES.

As to `COc1cc2ccnc(Nc3ccc(S(C)(=O)=O)cc3)c2cc1OC` [Compound 2, 6,7-dimethoxy-N-(4-methylsulfonylphenyl)isoquinolin-1-amine], the release of lactate entry in experiment [1] is listed as “increased”. In addition, in experiment [2], the “extracellular glucose levels in the brain” value is given as “significantly increases extracellular glucose levels” and the “extracellular lactate levels in the brain” value is on record as “significantly increases extracellular lactate levels”. Besides, the “memory in the Novel object recognition” value in experiment [3] (10 mg/kg) is “significantly higher”. For the same compound, in experiment [3] (30 mg/kg), the “memory in the Novel object recognition” value is listed as “significantly higher”.
